Assay results from ChEMBL document CHEMBL1201862, “PubChem BioAssay data set” (2004).
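Grown in 96-well plates, cells were treated for 48 hours with each compound at five concentrations. Insufficient inhibition: endpoint recorded as highest concentration tested. Abbreviation: GI50, concentration required for 50% inhibition of growth.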 The source made the active and inactive calls. No stated cut-off is given here; in the data, active = GI50 up to about 1.1 µM and inactive = higher.

Assays:
Experiment in all cases: NCI tumour cell line growth inhibition, 48 h
[1] = tested on: EKVX
[2] = tested on: SK-MEL-5
[3] = tested on: BT-549
[4] = tested on: SR
[5] = tested on: SF-539
[6] = tested on: MCF7
[7] = tested on: SK-MEL-28
[8] = tested on: COLO 205
[9] = tested on: K562
[10] = tested on: SNB-75
[11] = tested on: NCI-H460
[12] = tested on: ACHN
[13] = tested on: HCT-15
[14] = tested on: MDA-MB-231
[15] = tested on: MOLT-4
[16] = tested on: RXF 393
[17] = tested on: SK-MEL-2
[18] = tested on: MDA-MB-435
[19] = tested on: Hs-578T
[20] = tested on: PC-3

Compound | GI50 [1] | GI50 [2] | GI50 [3] | GI50 [4] | GI50 [5] | GI50 [6] | GI50 [7] | GI50 [8] | GI50 [9] | GI50 [10] | GI50 [11] | GI50 [12] | GI50 [13] | GI50 [14] | GI50 [15] | GI50 [16] | GI50 [17] | GI50 [18] | GI50 [19] | GI50 [20]
CC(C)NCC(O)c1cc(OCc2ccccc2)c(OCc2ccccc2)cc1NC(=O)CCC(=O)O (centres undefined) | 12.4 µM (inactive) | 2.1 µM (inactive) | 15.8 µM (inactive) | 2.34 µM (inactive) | 16.4 µM (inactive) | 5.69 µM (inactive) | 4.08 µM (inactive) | 2.06 µM (inactive) | 1.92 µM (inactive) | 10.6 µM (inactive) | 1.85 µM (inactive) | 3.18 µM (inactive) | 3.24 µM | 8.15 µM (inactive) | 3.64 µM (inactive) | 5.36 µM (inactive) | 1.45 µM (inactive) | 5.05 µM (inactive) | 11.6 µM (inactive) | 9.02 µM (inactive)
CC(=O)c1cc2c(s1)C(=O)c1scc(C(C)=O)c1C2=O | 0.485 µM (active) | 0.327 µM (active) | 1.12 µM (active) | 0.107 µM (active) | 1.21 µM (inactive) | 0.163 µM (active) | 0.673 µM (active) | 1.97 µM (inactive) | 0.272 µM (active) | 0.598 µM (active) | 0.345 µM (active) | 0.248 µM (active) | 0.308 µM | 0.225 µM (active) | – | 0.348 µM (active) | 0.586 µM (active) | 0.224 µM (active) | 0.279 µM (active) | 0.605 µM (active)
O=C(O)/C=C/c1ccc(OS(=O)(=O)O)cc1 | > 100 µM (inactive) | > 100 µM (inactive) | > 100 µM (inactive) | > 100 µM (inactive) | > 100 µM (inactive) | > 100 µM (inactive) | > 100 µM (inactive) | > 100 µM (inactive) | > 100 µM (inactive) | > 100 µM (inactive) | > 100 µM (inactive) | > 100 µM (inactive) | > 100 µM | > 100 µM (inactive) | > 100 µM (inactive) | 1.49 µM (inactive) | > 100 µM (inactive) | > 100 µM (inactive) | > 100 µM (inactive) | > 100 µM (inactive)
CN1CCN(CC(=O)N2c3ccccc3Sc3cc4ccccc4cc32)CC1 | 11.8 µM (inactive) | 17.5 µM (inactive) | 15.1 µM (inactive) | 13.9 µM (inactive) | 15.6 µM (inactive) | 15.8 µM (inactive) | 14.6 µM (inactive) | 13.9 µM (inactive) | 15.9 µM (inactive) | 14.5 µM (inactive) | 16 µM (inactive) | 16.4 µM (inactive) | 16.7 µM | 14.6 µM (inactive) | 12.2 µM (inactive) | 12.9 µM (inactive) | 17.5 µM (inactive) | 11.4 µM (inactive) | 11 µM (inactive) | 14.3 µM (inactive)
Cc1nn(C(=O)c2ccc(Cl)cc2)c2c1C(c1ccc(Cl)cc1)SC(=N)N2 (centres undefined) | > 10 µM (inactive) | > 10 µM (inactive) | > 10 µM (inactive) | > 10 µM (inactive) | > 10 µM (inactive) | > 10 µM (inactive) | > 10 µM (inactive) | > 10 µM (inactive) | > 10 µM (inactive) | > 10 µM (inactive) | > 10 µM (inactive) | > 10 µM (inactive) | > 10 µM | > 10 µM (inactive) | > 10 µM (inactive) | > 10 µM (inactive) | > 10 µM (inactive) | > 10 µM (inactive) | > 10 µM (inactive) | > 10 µM (inactive)
O=C(c1cc(Cl)cc(Cl)c1)N(Cc1cccnc1)C(=S)N(Cc1cccnc1)C(=O)c1cc(Cl)cc(Cl)c1 | 87.1 µM (inactive) | 23.3 µM (inactive) | 29.2 µM (inactive) | 16.1 µM (inactive) | 23.4 µM (inactive) | 5.69 µM (inactive) | 97.3 µM (inactive) | 15.3 µM (inactive) | 24.4 µM (inactive) | 92.7 µM (inactive) | 64.3 µM (inactive) | 22.5 µM (inactive) | 25.2 µM | 26.5 µM (inactive) | 38.9 µM (inactive) | 34.2 µM (inactive) | 31.7 µM (inactive) | 85.9 µM (inactive) | 60.8 µM (inactive) | 18.4 µM (inactive)
Cn1c(=O)c2nc(SCc3ccccn3)[nH]c2n(C)c1=S | 74 µM (inactive) | > 100 µM (inactive) | > 100 µM (inactive) | > 100 µM (inactive) | 34.1 µM (inactive) | > 100 µM (inactive) | > 100 µM (inactive) | > 100 µM (inactive) | > 100 µM (inactive) | 19.5 µM (inactive) | > 100 µM (inactive) | > 100 µM (inactive) | > 100 µM | 76.6 µM (inactive) | > 100 µM (inactive) | 32.1 µM (inactive) | 52.8 µM (inactive) | > 100 µM (inactive) | > 100 µM (inactive) | > 100 µM (inactive)
Cc1nc(C)c(N2CCN(S(=O)(=O)N(Cc3ccccc3)Cc3ccccc3)CC2)c(O)n1 | > 60 µM (inactive) | > 100 µM (inactive) | > 57.4 µM (inactive) | > 100 µM (inactive) | 12.5 µM (inactive) | > 43.6 µM (inactive) | > 100 µM (inactive) | > 100 µM (inactive) | > 100 µM (inactive) | 5.31 µM (inactive) | > 46.9 µM (inactive) | 28.6 µM (inactive) | > 100 µM | > 35.7 µM (inactive) | > 100 µM (inactive) | 11.2 µM (inactive) | 26.7 µM (inactive) | > 100 µM (inactive) | 3.4 µM (inactive) | 41.8 µM (inactive)
C[n+]1cccc(/C=C/c2ccc3cccc(O)c3n2)c1 | > 100 µM (inactive) | 37.1 µM (inactive) | 84.9 µM (inactive) | > 100 µM (inactive) | 88.1 µM (inactive) | 72.4 µM (inactive) | > 100 µM (inactive) | > 100 µM (inactive) | 50.9 µM (inactive) | > 100 µM (inactive) | 68.7 µM (inactive) | > 100 µM (inactive) | > 100 µM | > 100 µM (inactive) | 54.5 µM (inactive) | > 100 µM (inactive) | > 100 µM (inactive) | > 100 µM (inactive) | 65.5 µM (inactive) | > 100 µM (inactive)
Clc1nncc2sc(-c3ccccc3)nc12 | 4.12 µM (inactive) | 15.6 µM (inactive) | 13.9 µM (inactive) | 9.82 µM (inactive) | 27.5 µM (inactive) | 25.5 µM (inactive) | 12.8 µM (inactive) | 29.2 µM (inactive) | 7.71 µM (inactive) | 15.9 µM (inactive) | 16.8 µM (inactive) | 26.9 µM (inactive) | 7 µM | 18.6 µM (inactive) | 28.8 µM (inactive) | 16.6 µM (inactive) | 16.4 µM (inactive) | 17.4 µM (inactive) | 20.6 µM (inactive) | 17.6 µM (inactive)
CCOC(=O)C(=CNc1ccc(NC2=NCC(C)S2)cc1)C(=O)OCC (centres undefined) | 37.3 µM (inactive) | 16.5 µM (inactive) | 15.2 µM (inactive) | 22.3 µM (inactive) | 47.8 µM (inactive) | 30.3 µM (inactive) | 20.8 µM (inactive) | 35.6 µM (inactive) | 0.382 µM (active) | 22.1 µM (inactive) | 31.6 µM (inactive) | 18.7 µM (inactive) | 15.2 µM | 34.3 µM (inactive) | 3.15 µM (inactive) | 30.5 µM (inactive) | 19.7 µM (inactive) | 20.2 µM (inactive) | 25.5 µM (inactive) | 16.1 µM (inactive)
O=NN(Cc1ccc(Cl)cc1)C(C(=O)O)c1ccccc1 (centres undefined) | > 100 µM (inactive) | > 100 µM (inactive) | > 100 µM (inactive) | > 100 µM (inactive) | > 100 µM (inactive) | > 100 µM (inactive) | > 100 µM (inactive) | > 100 µM (inactive) | > 100 µM (inactive) | > 100 µM (inactive) | > 100 µM (inactive) | > 100 µM (inactive) | > 100 µM | > 100 µM (inactive) | > 100 µM (inactive) | > 100 µM (inactive) | > 100 µM (inactive) | > 100 µM (inactive) | > 100 µM (inactive) | > 100 µM (inactive)
CC(C)(C)c1cc(C(C)(C)C)c2sc(=S)oc2c1O | 3.85 µM (inactive) | 8.17 µM (inactive) | 8.51 µM (inactive) | 3.18 µM (inactive) | 2.39 µM (inactive) | 6.79 µM (inactive) | 8.09 µM (inactive) | 14.5 µM (inactive) | 15 µM (inactive) | 6.49 µM (inactive) | 6.1 µM (inactive) | 8.53 µM (inactive) | 4.98 µM | 13.6 µM (inactive) | 5.2 µM (inactive) | 4.69 µM (inactive) | 8.79 µM (inactive) | 8.17 µM (inactive) | 4.43 µM (inactive) | 4.29 µM (inactive)
O=C(/C=C/c1ccc(O)cc1)c1ccc(O)cc1 [4,4'-DIHYDROXYCHALCONE] | 42.3 µM (inactive) | 21.5 µM (inactive) | 32.6 µM (inactive) | 9.71 µM (inactive) | 21.1 µM (inactive) | 32.9 µM (inactive) | 28.1 µM (inactive) | 30.4 µM (inactive) | 27.2 µM (inactive) | 20.9 µM (inactive) | 26.8 µM (inactive) | 23.9 µM (inactive) | 20.3 µM | 43.7 µM (inactive) | 19.3 µM (inactive) | 22.9 µM (inactive) | 19.6 µM (inactive) | 40.2 µM (inactive) | 27 µM (inactive) | 28.7 µM (inactive)
